Results on one compound are retold here after patent US10245244B2, “Pharmaceutical formulations for the treatment of pulmonary arterial hypertension” (HEART BIOTECH PHARMA LIMITED, priority 2014, dated 2019).

The test system of one assay is pulmonary arteries. Briefly: U46619 contractile responses of pulmonary arteries. Particulars: control mice (normoxic), FIG. 9a.
Another assay concerns aorta. Briefly: U46619 contractile responses of aorta. The conditions noted are these: control mice (normoxic), FIG. 9a.

Molecules are shown by their SMILES.

As to `CCCCC[C@H](O)/C=C/[C@@H]1[C@@H](C/C=C\CCCC(=O)O)[C@H]2CO[C@@H]1C2` [U46619, 9,11-Dideoxy-9α,11α-methanoepoxy prostaglandin F2α], the “contraction of the pulmonary artery” value with pulmonary arteries is given as “less contraction”. Further, the “contraction of the aorta” value in the assay with aorta is “significant contraction”.
